The numbers were not newly measured in patent US7083961B1 (priority 2002, dated 2006), which cites them from elsewhere.

The target in the series is T. foetus IMPDH (Tritrichomonas foetus, UniProt P50097). To be noted: T. foetus enzyme, without cofactor bound.
Chain of T. foetus IMPDH (P50097 whole entry): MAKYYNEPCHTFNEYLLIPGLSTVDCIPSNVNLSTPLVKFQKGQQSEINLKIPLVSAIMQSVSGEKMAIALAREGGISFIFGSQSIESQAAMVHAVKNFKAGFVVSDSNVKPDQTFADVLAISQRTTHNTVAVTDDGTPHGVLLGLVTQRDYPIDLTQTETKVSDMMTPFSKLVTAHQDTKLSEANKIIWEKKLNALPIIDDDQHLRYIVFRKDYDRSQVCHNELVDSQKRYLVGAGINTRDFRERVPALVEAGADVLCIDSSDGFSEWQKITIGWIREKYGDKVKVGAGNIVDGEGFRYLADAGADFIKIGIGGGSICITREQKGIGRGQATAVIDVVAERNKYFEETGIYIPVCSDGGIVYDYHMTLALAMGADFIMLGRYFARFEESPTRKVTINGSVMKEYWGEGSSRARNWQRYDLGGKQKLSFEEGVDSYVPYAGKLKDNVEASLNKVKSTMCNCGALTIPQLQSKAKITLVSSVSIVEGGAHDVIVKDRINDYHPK

With `O=c1[nH]c(=O)c2ncn([C@@H]3O[C@H](COP(=O)(O)O)[C@@H](O)[C@H]3O)c2[nH]1` [XMP, xanthosine monophosphate], the off-rate is 17 s⁻¹.
